Results on 13 compounds are retold here after article PMC4368516 (PLoS Neglected Tropical Diseases, 2015).

Data set [1] addresses T1, CqDOP2 (Culex quinquefasciatus, UniProt A0A0B5H0X6). Kind of data set: cell-based.
Data set [2] addresses T2, Human D1 (Homo sapiens, UniProt P21728).
T2 construct: expressed in transfected cells
The data set is described as follows: Inhibition of dopamine-stimulated cAMP response (HTRF) in HEK293 cells expressing human D1. It counts as cell-based. Background: In TR-FRET formats the signal depends on donor and acceptor labels being close together.

Data set [3] relates to Ae. aegypti larvae. The data set is described as follows: whole plant or invertebrate. Conditions: Aedes aegypti, 72 h, read-out: LC50, Aa.
For data set [4], the system named is Ae. aegypti larvae. Conditions: for LT50, Aa: at 400 μM.
The target in data set [5] is T3, AaDOP2 (Aedes aegypti, UniProt H6D5H2).
T3 sequence (H6D5H2 1-476): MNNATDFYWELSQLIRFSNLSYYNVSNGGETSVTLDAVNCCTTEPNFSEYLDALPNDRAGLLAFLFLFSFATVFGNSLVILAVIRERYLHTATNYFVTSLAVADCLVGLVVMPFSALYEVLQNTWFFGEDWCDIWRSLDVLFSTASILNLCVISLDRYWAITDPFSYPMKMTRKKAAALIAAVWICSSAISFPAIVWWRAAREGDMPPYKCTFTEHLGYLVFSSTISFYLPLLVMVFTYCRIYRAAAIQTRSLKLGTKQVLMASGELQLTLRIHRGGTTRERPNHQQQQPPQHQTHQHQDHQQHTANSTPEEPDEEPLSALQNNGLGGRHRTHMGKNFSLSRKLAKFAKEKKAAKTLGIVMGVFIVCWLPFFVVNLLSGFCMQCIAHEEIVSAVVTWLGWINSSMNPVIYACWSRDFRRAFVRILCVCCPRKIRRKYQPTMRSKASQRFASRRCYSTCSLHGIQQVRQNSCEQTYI
The data set is described as follows: cell-based.

Data set [6] deals with C. quinquefasciatus larvae. Kind of data set: whole plant or invertebrate. Conditions: Culex quinquefasciatus, 72 h, read-out: LC50, Cq.
Data set [7] relates to C. quinquefasciatus larvae. Conditions: for LT50, Cq: at 400 μM; for earliest time debilitated larvae observed after exposure, C. quinquefasciatus: 400 μM; for larval mortality, C. quinquefasciatus, within the first 24 h: 24 h post exposure (S3 Fig).
The target in data set [8] is T3, AaDOP2. Kind of data set: cell-based. This is another data set of the same source.
For data set [9], the target named is T1, CqDOP2. The data set is described as follows: HTRF cAMP accumulation assay, agonist response of CqDOP2 stably expressed in HEK293 cells. It counts as cell-based. Conditions: for EC50 fold higher than that of dopamine, CqDOP2: cAMP response.
In data set [10] the target is T3, AaDOP2. Conditions: cAMP response.
For data set [11], the system named is AmDOP2. Conditions: ref [19]; cited from earlier work.
Data set [12] deals with T1, CqDOP2. Conditions: read-out: IC50 for inhibition of dopamine-stimulated cAMP response, CqDOP2; HEK293 cells; dopamine 3 μM; ±SEM.
The mark [13] stands for this setting: read-out: IC50 for inhibition of dopamine-stimulated cAMP response, Human D1.

Structures can show the parent of a compound that is named as a salt. Where two headings read alike, the source gives them in different places.

T2 sequence (P21728 whole entry): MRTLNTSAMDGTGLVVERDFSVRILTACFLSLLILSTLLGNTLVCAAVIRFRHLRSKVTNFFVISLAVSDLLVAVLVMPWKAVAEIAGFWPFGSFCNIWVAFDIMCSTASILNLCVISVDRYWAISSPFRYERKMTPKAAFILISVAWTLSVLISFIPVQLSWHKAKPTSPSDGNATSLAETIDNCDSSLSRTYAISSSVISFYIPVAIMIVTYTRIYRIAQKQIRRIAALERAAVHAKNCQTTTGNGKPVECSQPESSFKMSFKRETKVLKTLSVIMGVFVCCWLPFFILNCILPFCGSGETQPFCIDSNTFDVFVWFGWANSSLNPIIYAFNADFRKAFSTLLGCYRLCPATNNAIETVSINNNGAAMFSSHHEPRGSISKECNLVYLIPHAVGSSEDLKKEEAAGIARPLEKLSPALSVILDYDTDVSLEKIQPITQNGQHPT
T1 sequence (A0A0B5H0X6 entry or part of it): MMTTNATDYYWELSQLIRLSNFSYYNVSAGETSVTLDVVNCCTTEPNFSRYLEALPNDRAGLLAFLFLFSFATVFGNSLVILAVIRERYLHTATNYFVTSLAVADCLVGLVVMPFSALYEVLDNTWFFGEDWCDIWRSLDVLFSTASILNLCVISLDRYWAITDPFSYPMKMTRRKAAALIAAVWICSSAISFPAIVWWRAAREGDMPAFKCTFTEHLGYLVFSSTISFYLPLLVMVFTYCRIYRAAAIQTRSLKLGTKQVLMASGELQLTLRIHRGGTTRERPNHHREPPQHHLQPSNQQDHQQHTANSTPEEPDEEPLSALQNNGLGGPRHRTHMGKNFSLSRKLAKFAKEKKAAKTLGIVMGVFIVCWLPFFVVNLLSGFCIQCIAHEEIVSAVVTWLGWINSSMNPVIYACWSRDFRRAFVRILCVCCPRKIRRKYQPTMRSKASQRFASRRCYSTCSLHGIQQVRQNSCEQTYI

On to `CN(C)CCC=C1c2ccccc2CCc2ccccc21` [Amitriptyline, amitriptyline hydrochloride], for which the figures for the half-maximal inhibitory concentration (IC50) in [1], in data set [2] and in data set [5] were 0.0033 ± 0.0004 µM, 0.69 ± 0.052 µM and 0.0064 ± 0.002 µM, respectively. The LC50 (commonly the concentration that kills 50% of the test population) in data set [3] is 208 ± 137 µM; in data set [6], 165 ± 37 µM. Also, the “LT50, Aa” value in data set [4] (L3 larvae, ±SEM, n ≥ 3) came out at 47.8 ± 6.3 h. Also, in [7] (L3 larvae, ±SEM, n ≥ 3), the “LT50, Cq” value turned out to be 41.7 ± 2.1 h.

Turning to `CCNC(=O)N1CCN(CCCC(c2ccc(F)cc2)c2ccc(F)cc2)CC1` [Amperozide, amperozide hydrochloride], the values for the concentration for half-maximal inhibition (IC50) in [1], in data set [2] (setting [13]) and in data set [5] were 0.248 ± 0.042 µM, 16.2 ± 4.77 µM and 0.469 ± 0.071 µM, respectively. Moreover, the LC50 in data set [3] was 161 ± 20 µM; in data set [6], 135 ± 35 µM. Also, in data set [4] (L3 larvae, ±SEM, n ≥ 3), the “LT50, Aa” value is 46.6 ± 6.2 h. Moreover, the “LT50, Cq” value in data set [7] (L3 larvae, ±SEM, n ≥ 3) came to 25.4 ± 1.5 h.

With `CN1CC2c3ccccc3Oc3ccc(Cl)cc3C2C1` (stereo not shown) [Asenapine, asenapine maleate], the results for the IC50 in [1], in data set [2] (setting [13]) and in data set [5] were 0.0008 ± 3e-05 µM, 0.101 ± 0.002 µM and 0.0007 ± 0.0002 µM, respectively. The LC50 in [3] amounted to 102 ± 22 µM; in data set [6], 50 ± 10 µM. In data set [4] (L3 larvae, ±SEM, n ≥ 3), the “LT50, Aa” value was determined as 36.4 ± 1.6 h. For the same compound, the “larval mortality, Ae. aegypti, after 48 h” value in data set [4] (in vivo) is > 70%. Further, in data set [7] (L3 larvae, ±SEM, n ≥ 3), the “LT50, Cq” value was 24.2 ± 1.3 h.

With `CN(C)CCCN1c2ccccc2Sc2ccc(Cl)cc21` [Chlorpromazine, chlorpromazine hydrochloride], the figures for the IC50 in data set [1] and in [5] were 0.0074 ± 0.002 µM and 0.019 ± 0.001 µM, respectively. For the same compound, the 50% lethal concentration (LC50) in [3] came out at 88 ± 9 µM; in [6], 64 ± 9 µM. Further, the “larval mortality, Ae. aegypti, after 48 h” value in data set [4] (48 h post exposure (S4 Fig)) is listed as > 70%. Besides, the “LT50, Aa” value in data set [4] (L3 larvae, ±SEM, n ≥ 3) was 26.1 ± 0.9 h. The “earliest time debilitated larvae observed after exposure, C. quinquefasciatus” value in [7] stood at 1 h. In data set [7], the “larval mortality, C. quinquefasciatus, within the first 24 h” value (shortened to “larval mortality, C. quinquefasciatus”) is given as > 70%. For the same compound, in data set [7] (L3 larvae, ±SEM, n ≥ 3), the “LT50, Cq” value turned out to be 16.7 ± 1.1 h.

`CN(C)CC/C=C1/c2ccccc2Sc2ccc(Cl)cc21` [Chlorprothixene]: the LC50 in data set [3] was determined as 62 ± 9 µM. Besides, in [4] (48 h post exposure (S4 Fig)), the “larval mortality, Ae. aegypti, after 48 h” value is > 70%. Also, the “LT50, Aa” value in data set [4] (L3 larvae, ±SEM, n ≥ 3) stood at 22.2 ± 3.2 h. Besides, the “earliest time debilitated larvae observed after exposure, Ae. aegypti” value in [4] (in vivo) is listed as 2 h. The LC50 in [6] turned out to be 41 ± 7 µM. In [7], the “earliest time debilitated larvae observed after exposure, C. quinquefasciatus” value stood at 1 h and the “larval mortality, C. quinquefasciatus” value is recorded as > 70%. Further, the “LT50, Cq” value in data set [7] (L3 larvae, ±SEM, n ≥ 3) was 13.9 ± 2.0 h.

For the compound `OCCN1CCN(CC/C=C2/c3ccccc3Sc3ccc(C(F)(F)F)cc32)CC1` [Cis-(Z)-flupenthixol, cis-(Z)-flupenthixol dihydrochloride], the results for the IC50 in [1] and in data set [5] were 0.002 ± 0.0005 µM and 0.002 ± 0.0008 µM, respectively. The LC50 in data set [3] turned out to be 83 ± 25 µM; in data set [6], 59 ± 22 µM. Moreover, the “LT50, Aa” value in data set [4] (L3 larvae, ±SEM, n ≥ 3) worked out at 42.6 ± 2.9 h. The “LT50, Cq” value in [7] (L3 larvae, ±SEM, n ≥ 3) came to 35.2 ± 6.1 h.

Take `CN(C)CCCN1c2ccccc2CCc2ccc(Cl)cc21` [Clomipramine]: the median lethal concentration (LC50) in data set [3] was 88 ± 24 µM; in [6], 89 ± 19 µM. For the same compound, in data set [4] (L3 larvae, ±SEM, n ≥ 3), the “LT50, Aa” value was found to be 28.7 ± 3.1 h. The “LT50, Cq” value in data set [7] (L3 larvae, ±SEM, n ≥ 3) was found to be 27.3 ± 3.0 h.

Consider `CNC[C@H](O)c1ccc(O)c(O)c1` [Epinephrine, (-)-epinephrine bitartrate], for which the EC50 (in general, the concentration needed to bring the measured effect to its halfway point) in [8] was 41.1 ± 10.5 µM; in data set [9], 80.8 ± 21 µM. The “EC50 fold higher than that of dopamine, CqDOP2” value in data set [9] is given as “at least 10 fold”. Further, the “EC50 fold higher than that of dopamine, AaDOP2” value in data set [10] is recorded as “at least 10 fold”.

On to `CSc1ccc2c(c1)C(N1CCN(C)CC1)Cc1ccccc1S2` (stereo not shown) [Methiothepin], for which the “larval mortality, Ae. aegypti, after 48 h” value in data set [4] (48 h post exposure (S4 Fig)) was > 70%. For the same compound, the “LT50, Aa” value in data set [4] (L3 larvae, ±SEM, n ≥ 3) was 30.6 ± 1.4 h. For the same compound, the LC50 in data set [4] (read-out: LC50, Aa, L3 larvae, 72 h exposure, ±SEM, n ≥ 3) worked out at 69 ± 12 µM. In [7], the “earliest time debilitated larvae observed after exposure, C. quinquefasciatus” value is 1 h and the “larval mortality, C. quinquefasciatus” value was > 70%. Further, the “LT50, Cq” value in data set [7] (L3 larvae, ±SEM, n ≥ 3) turned out to be 15.7 ± 4.9 h. The LC50 in data set [7] (read-out: LC50, Cq, L3 larvae, 72 h exposure, ±SEM, n ≥ 3) stood at 44 ± 3 µM.

Regarding `CN1CCN2c3ccccc3Cc3ccccc3C2C1` (stereo not shown) [Mianserin], the “LT50, Aa” value in data set [4] (L3 larvae, ±SEM, n ≥ 3) was 22.8 ± 1.3 h. Also, the “LT50, Cq” value in [7] (L3 larvae, ±SEM, n ≥ 3) was 17.9 ± 3.0 h.

In the case of `NC[C@H](O)c1ccc(O)c(O)c1` [Norepinephrine, L (-)-norepinephrine bitartrate], the EC50 in [8] worked out at 30.3 ± 7.5 µM; in data set [9], 52.2 ± 13.8 µM. Further, the “EC50 fold higher than that of dopamine, CqDOP2” value in data set [9] is “at least 10 fold”. In data set [11], the “fold more agonist required than dopamine, AmDOP2” value is “approximately 25 fold”. In addition, in data set [10], the “EC50 fold higher than that of dopamine, AaDOP2” value is reported as “at least 10 fold”.

Take `CN1CCc2cc(Cl)c(O)cc2[C@@H](c2ccccc2)C1` [SCH23390, SCH23390 hydrochloride]: the IC50 (as a rule, the concentration needed to halve the response being measured) was 0.745 ± 0.062 µM in data set [1] and 0.709 ± 0.187 µM in data set [5].

Regarding “(±) butaclamol hydrochloride [(±)-Butaclamol]”, in data set [12], the IC50 was found to be 0.172 ± 0.015 µM.
